Experimental findings from patent US9284325B2, “Spectinamides as anti-tuberculosis agents” (UNIVERSITY OF TENNESSEE RESEARCH FOUNDATION, priority 2009, dated 2016) are described below.

Structures can show the parent of a compound that is named as a salt.

In one data set the test system is E. faecalis ATCC 33186. The data set can be described thus: MIC determination by microbroth dilution. The format is cell-based, Enterococcus faecalis. The conditions noted are these: Enterococcus faecalis, ATCC33186. Background: In broth dilution the organism is exposed to a series of concentrations in liquid medium.
Data set [1] concerns S. aureus 8325 or strain ATCC 29213. Briefly: MIC determination by microbroth dilution. The data set is classed as cell-based, Staphylococcus aureus. The conditions noted are these: Staphylococcus aureus, ATCC29213; S. aureus 8325 or strain ATCC 29213 (for 1471-1544).
Data set [2] concerns Klebsiella pneumoniae ATCC 33495. Briefly: MIC determination by microbroth dilution. The format is cell-based. As to conditions: ATCC33495.
For data set [3], the system named is Acinetobacter baumannii ATCC 19606. The data set can be described thus: MIC determination by microbroth dilution. The format is cell-based. The conditions noted are these: ATCC19606.
In a further data set the test system is E. coli ribosomes. The data set is classed as biochemical.
Another data set relates to E. coli K12 ΔtolC. Briefly: microbe, parasite or virus in culture. The format is cell-based. As to conditions: Escherichia coli, read-out: MIC E. coli K12 ΔtolC.
Data set [4] deals with Proteus mirabilis ATCC 25933. The data set can be described thus: MIC determination by microbroth dilution. The format is cell-based. The conditions noted are these: ATCC25933.
Data set [5] concerns Strep. pyogenes ATCC 700294. Briefly: MIC determination by microbroth dilution. The data set is classed as cell-based, Streptococcus pyogenes. As to conditions: Streptococcus pyogenes, ATCC700294, read-out: MIC S. pyogenes.
The subject of another data set is E. coli K12. Briefly: MIC determination by microbroth dilution. The format is cell-based, Escherichia coli. The conditions noted are these: Escherichia coli, K12.
Data set [6] has as its system Proteus vulgaris ATCC 33420. Briefly: MIC determination by microbroth dilution. The data set is classed as cell-based. The conditions noted are these: ATCC33420.
The next data set in a line: in vitro. The format is in vitro ADME. As to conditions: rat, plasma, pH 7.4. The protocol: Protein Binding: Protein binding of the compounds was determined using equilibrium dialysis. Biologically relevant concentrations of test compound were prepared (low and high) in rat plasma. 200 μL of the plasma sample was placed in the central chamber and 350 μL of blank isotonic phosphate buffer, pH 7.4 was added to the peripheral chamber of a dialysis device (MW cutoff 6000-8000 D, RED® device, Pierce Biotechnology Inc, Rockford, Ill., United States of America). The chambers were covered with a seal and incubated at 37° C. for four hours on a shaker set at 100 rpm. At the end of incubation, the volumes of plasma and recipient buffer were measured to identify and account for volume shift, if any. Aliquots of plasma and buffer were used to determine the drug concentration using an LC-MS/MS assay. The free fraction of the drug was calculated as ratio of the concentrations in the buffer and in plasma.
(§1) Following intravenous administration of 10 mg/kg in rats, 1329 follows a bi-exponential concentration/time profile with distinct distribution and elimination phases. Plasma protein binding of the compound is approximately 30%. 1329 is widely distributed with a steady state volume of distribution of 4.3 L/kg. It has a mean residence time in the body of approximately 5.3 hours.

Data set [7] concerns Strenotrophomonas maltophilia ATCC 13637. Briefly: MIC determination by microbroth dilution. The data set is classed as cell-based.
Another data set concerns Vero epithelial cells. As to conditions: African green monkey.
Data set [8] is classed as in vitro ADME. As to conditions: rat, microsomes, 1.5 h, 2 µM, pH 7.4. The protocol: In Vitro Microsomal Metabolic Stability: In vitro microsomal metabolic stability of the compounds was assessed using pooled rat liver microsomal preparations (Cellzdirect, Austin, Tex., United States of America). Reactions were started by adding 25 μL of microsomal protein solution (10 mg/mL) to 25 μL of test compound (20 μM) and 200 μL of NADPH regenerating solution (1.3 mM NADP+, 3.3 mM glucose-6-phosphate, 3.3 mM MgCl2 and 1 unit/mL glucose-6-phosphate dehydrogenase in pH 7.4 phosphate buffer solution). The reaction mixture was incubated at 37° C. and samples were taken at 0, 5, 10, 15, 30, 45, 60 and 90 minutes respectively. A reaction mixture containing above mentioned composition but instead using deactivated microsomes was used for control. All the samples were analyzed using LC-MS/MS assay. Disappearance of the parent compound was monitored during the incubation period. The percentage of parent compound remaining intact was estimated by comparing analyte concentrations before and after incubation.
as §1

The subject of another data set is M. tuberculosis H37Rv. The data set can be described thus: MIC determination by microbroth dilution, anti-tuberculosis activity. The format is cell-based, Mycobacterium tuberculosis.
The subject of data set [9] is Strep. pneumoniae DAW27 or strain R6. The data set can be described thus: MIC determination by microbroth dilution. As to conditions: Streptococcus pneumoniae; Strep. pneumoniae DAW27 or strain R6 (for 1443-1544); read-out: MIC S. pneumoniae. The data set is classed as cell-based, Streptococcus pneumoniae.
The subject of data set [10] is Burkholderia cepacia ATCC 25416. Briefly: MIC determination by microbroth dilution. The data set is classed as cell-based. The conditions noted are these: ATCC25416, read-out: MIC B. cepcia.
The test system of another data set is B. anthracis Sterne 34F2. Briefly: microbe, parasite or virus in culture. The data set is classed as cell-based, Bacillus anthracis. As to conditions: Bacillus anthracis, STERNE34F2, read-out: MIC B. anthracis 34F2.
Another data set has as its system P. aeruginosa PAO1. Briefly: MIC determination by microbroth dilution. As to conditions: Pseudomonas aeruginosa. The data set is classed as cell-based, Pseudomonas aeruginosa.

Consider `CN[C@@H]1[C@H](O)[C@H](NC)C2O[C@]3(O)C(OC2[C@H]1O)O[C@H](C)C[C@H]3NC(=O)Cc1ccccn1` (stereo partly drawn) [Compound 1329, 3′-Dihydro-3′-deoxy-4(R)-(pyridin-2yl)acetylamino spectinomycin Dihydrochloride], for which the MIC in the data set on E. faecalis ATCC 33186 was 100 µg/mL; in data set [1], 50 µg/mL; in data set [2], over 200 µg/mL; in data set [3], over 200 µg/mL; with E. coli K12 ΔtolC it was 50 µg/mL; in data set [4], over 200 µg/mL. For the same molecule, the MIC is 50 µg/mL in data set [5]; 200 µg/mL against E. coli K12; over 200 µg/mL in data set [6]; 200 µg/mL in [7]; 0.8 µg/mL in the data set with M. tuberculosis H37Rv (Mycobacterium tuberculosis, H37RV, 168 h, read-out: MIC); 6.25 µg/mL in data set [9]. In addition, the MIC is over 200 µg/mL in [10], 50 µg/mL in the data set on B. anthracis Sterne 34F2 and 100 µg/mL in the data set on P. aeruginosa PAO1. Moreover, the IC50 in the data set with E. coli ribosomes (E. coli S30 system, FIG. 4, read-out: concentration causing 50% reduction in the synthesis of luciferase) amounted to 660 nM. Moreover, the “IC50, 50% inhibition of luciferase biosynthesis in S30 assay” value in the data set on E. coli ribosomes (E. coli S30 transcription/translation assay) is 0.29 µg/mL. For the same molecule, the fraction unbound (in general, the share of the substance not bound to proteins or other matrix) at 4 h in “in vitro” is about 0.7. In addition, the “therapeutic index (IC50 divided by the MIC)” value with Vero epithelial cells is reported as 5456. Further, the “parent drug remaining intact” value in data set [8] stood at 95%. For the same molecule, the “Activity (MIC) of 1329 compared to streptomycin” value in the data set with M. tuberculosis H37Rv is reported as 0.8-1.6.
